Results from ChEMBL document CHEMBL4706479, “Novel Aryloxyethyl Derivatives of 1-(1-Benzoylpiperidin-4-yl)methanamine as the Extracellular Regulated Kinases 1/2 (ERK1/2) Phosphorylation-Preferring Serotonin 5-HT Receptor-Biased Agonists with Robust Antidepressant-like Activity” (J Med Chem, 2019).
In brackets after ≈: the same amount, converted by molar mass. Activity calls are given as the source filed them. The rule behind the calls is not given here.

Assays:
[1] = target: T1, Adrenergic receptor alpha-1 (Rattus norvegicus, UniProt P15823+P23944+P43140); test: Displacement of [3H]-prazosin from alpha1 adrenergic receptor in rat cortex measured after 30 mins by microbeta2 scintillation counting method; format: tissue-based
T1 sequence (P15823 whole entry): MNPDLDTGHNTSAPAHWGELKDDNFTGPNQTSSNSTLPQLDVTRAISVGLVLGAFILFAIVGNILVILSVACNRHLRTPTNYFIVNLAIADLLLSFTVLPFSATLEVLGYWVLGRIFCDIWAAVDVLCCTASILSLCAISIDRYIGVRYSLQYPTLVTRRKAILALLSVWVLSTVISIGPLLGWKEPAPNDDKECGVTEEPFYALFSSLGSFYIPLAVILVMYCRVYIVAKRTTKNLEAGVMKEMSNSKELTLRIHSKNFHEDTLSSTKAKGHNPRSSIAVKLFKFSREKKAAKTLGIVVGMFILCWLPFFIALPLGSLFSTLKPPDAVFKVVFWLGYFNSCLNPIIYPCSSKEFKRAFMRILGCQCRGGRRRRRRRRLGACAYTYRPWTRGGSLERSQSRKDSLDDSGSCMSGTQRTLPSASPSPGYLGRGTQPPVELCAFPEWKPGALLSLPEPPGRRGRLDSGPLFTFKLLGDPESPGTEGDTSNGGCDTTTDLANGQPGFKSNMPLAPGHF
T1 sequence (P23944 whole entry): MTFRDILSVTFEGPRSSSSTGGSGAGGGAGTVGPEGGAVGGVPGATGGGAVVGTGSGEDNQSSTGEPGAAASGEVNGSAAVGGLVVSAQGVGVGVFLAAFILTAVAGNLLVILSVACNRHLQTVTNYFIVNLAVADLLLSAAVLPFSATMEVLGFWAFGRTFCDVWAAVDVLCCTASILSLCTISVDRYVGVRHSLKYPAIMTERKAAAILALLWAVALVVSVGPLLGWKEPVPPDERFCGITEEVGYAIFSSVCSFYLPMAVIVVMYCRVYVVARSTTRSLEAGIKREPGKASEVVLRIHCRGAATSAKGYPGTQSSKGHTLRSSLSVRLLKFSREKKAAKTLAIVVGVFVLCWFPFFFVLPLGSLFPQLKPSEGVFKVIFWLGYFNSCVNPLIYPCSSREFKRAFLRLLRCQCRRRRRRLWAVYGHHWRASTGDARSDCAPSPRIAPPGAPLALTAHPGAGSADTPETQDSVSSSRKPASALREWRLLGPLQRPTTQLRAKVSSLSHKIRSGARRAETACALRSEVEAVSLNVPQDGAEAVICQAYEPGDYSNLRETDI
T1 sequence (P43140 whole entry): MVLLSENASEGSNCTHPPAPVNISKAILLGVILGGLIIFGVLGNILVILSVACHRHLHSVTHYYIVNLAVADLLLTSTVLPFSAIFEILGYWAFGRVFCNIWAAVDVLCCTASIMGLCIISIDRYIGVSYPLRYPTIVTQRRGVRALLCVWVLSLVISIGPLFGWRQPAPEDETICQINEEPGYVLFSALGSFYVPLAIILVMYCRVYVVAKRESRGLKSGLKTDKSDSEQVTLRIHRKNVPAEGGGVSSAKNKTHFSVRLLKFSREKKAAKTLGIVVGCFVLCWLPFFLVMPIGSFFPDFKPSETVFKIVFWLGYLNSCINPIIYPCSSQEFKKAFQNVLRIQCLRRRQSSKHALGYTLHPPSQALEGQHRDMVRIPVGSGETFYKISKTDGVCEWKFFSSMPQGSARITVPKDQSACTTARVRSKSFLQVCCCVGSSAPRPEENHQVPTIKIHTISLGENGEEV

[2] = target: Alpha-1A adrenergic receptor (Homo sapiens) (UniProt P35348); test: Inhibition of adrenergic alpha-1A receptor (unknown origin) at 1 uM relative to control
Chain of Alpha-1A adrenergic receptor (Homo sapiens) (P35348 whole entry): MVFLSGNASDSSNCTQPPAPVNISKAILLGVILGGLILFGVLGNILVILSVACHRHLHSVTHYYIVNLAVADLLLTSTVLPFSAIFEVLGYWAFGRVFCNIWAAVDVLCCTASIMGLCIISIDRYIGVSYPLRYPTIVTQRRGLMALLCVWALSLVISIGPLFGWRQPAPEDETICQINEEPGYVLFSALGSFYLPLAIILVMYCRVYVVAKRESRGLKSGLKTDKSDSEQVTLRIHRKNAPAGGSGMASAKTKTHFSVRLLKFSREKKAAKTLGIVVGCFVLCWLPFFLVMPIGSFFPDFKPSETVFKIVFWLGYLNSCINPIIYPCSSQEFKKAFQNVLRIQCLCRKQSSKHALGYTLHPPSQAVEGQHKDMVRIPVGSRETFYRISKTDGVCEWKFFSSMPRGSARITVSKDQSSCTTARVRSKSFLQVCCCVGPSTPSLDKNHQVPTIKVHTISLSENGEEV

[3] = target: Beta-2 adrenergic receptor (Homo sapiens) (UniProt P07550); test: Inhibition of adrenergic beta2 receptor (unknown origin) at 10 uM relative to control
Chain of Beta-2 adrenergic receptor (Homo sapiens) (P07550 whole entry, looked up): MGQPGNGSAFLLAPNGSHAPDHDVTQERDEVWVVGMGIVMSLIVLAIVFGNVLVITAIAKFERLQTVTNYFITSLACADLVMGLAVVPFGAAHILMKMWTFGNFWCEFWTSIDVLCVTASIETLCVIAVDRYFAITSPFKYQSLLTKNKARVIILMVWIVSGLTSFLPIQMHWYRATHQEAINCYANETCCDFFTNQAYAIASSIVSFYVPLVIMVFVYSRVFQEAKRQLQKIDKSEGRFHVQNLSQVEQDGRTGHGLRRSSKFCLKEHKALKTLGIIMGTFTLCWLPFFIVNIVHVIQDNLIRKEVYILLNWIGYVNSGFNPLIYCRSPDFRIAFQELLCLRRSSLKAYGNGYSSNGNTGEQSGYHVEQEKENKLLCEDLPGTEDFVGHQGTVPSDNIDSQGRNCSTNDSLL

[4] = target: Muscarinic acetylcholine receptor M1 (Homo sapiens) (UniProt P11229); test: Inhibition of muscarinic M1 receptor (unknown origin) at 10 uM relative to control
Chain of Muscarinic acetylcholine receptor M1 (Homo sapiens) (P11229 whole entry): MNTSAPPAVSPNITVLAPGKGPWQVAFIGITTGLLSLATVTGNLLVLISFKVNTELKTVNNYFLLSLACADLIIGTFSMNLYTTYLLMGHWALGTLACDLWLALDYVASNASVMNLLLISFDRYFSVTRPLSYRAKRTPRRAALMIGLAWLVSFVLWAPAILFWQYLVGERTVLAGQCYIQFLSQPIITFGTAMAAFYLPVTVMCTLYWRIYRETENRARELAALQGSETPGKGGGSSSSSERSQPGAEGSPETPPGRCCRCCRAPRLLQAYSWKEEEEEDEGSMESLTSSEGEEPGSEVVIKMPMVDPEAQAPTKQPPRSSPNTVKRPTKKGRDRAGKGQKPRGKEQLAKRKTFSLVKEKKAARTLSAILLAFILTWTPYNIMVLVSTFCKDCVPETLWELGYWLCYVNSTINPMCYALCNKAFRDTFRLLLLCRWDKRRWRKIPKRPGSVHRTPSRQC

[5] = target: Muscarinic acetylcholine receptor M2 (Homo sapiens) (UniProt P08172); test: Inhibition of muscarinic M2 receptor (unknown origin) at 10 uM relative to control
Chain of Muscarinic acetylcholine receptor M2 (Homo sapiens) (P08172 whole entry): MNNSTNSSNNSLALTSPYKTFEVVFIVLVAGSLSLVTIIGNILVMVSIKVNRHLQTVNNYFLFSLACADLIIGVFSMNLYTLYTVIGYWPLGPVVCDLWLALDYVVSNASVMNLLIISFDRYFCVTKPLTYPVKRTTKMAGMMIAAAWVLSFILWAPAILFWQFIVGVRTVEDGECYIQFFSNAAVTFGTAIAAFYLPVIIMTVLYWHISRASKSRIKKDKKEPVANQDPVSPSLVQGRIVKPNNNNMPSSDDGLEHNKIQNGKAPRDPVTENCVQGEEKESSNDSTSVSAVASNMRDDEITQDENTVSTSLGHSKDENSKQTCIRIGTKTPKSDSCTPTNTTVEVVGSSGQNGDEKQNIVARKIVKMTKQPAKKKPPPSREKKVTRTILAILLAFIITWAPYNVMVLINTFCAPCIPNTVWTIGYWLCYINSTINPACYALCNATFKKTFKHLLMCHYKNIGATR

[6] = target: Muscarinic acetylcholine receptor M3 (Homo sapiens) (UniProt P20309); test: Inhibition of muscarinic M3 receptor (unknown origin) at 10 uM relative to control
Chain of Muscarinic acetylcholine receptor M3 (Homo sapiens) (P20309 whole entry, looked up): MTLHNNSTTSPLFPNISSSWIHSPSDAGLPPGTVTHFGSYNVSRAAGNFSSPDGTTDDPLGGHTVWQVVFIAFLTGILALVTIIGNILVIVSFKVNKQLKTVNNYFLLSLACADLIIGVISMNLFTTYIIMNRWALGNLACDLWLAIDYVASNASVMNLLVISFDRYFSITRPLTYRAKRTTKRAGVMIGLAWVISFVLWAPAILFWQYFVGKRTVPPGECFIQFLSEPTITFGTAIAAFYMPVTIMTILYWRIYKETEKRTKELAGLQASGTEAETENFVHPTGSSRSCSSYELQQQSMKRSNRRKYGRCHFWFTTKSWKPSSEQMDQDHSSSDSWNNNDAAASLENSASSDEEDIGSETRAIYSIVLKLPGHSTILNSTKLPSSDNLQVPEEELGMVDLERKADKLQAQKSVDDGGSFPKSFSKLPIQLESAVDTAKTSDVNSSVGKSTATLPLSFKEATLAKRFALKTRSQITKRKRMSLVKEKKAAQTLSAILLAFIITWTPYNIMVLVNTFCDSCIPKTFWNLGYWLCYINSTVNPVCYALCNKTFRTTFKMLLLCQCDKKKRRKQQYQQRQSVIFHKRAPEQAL

[7] = target: Kappa-type opioid receptor (Homo sapiens) (UniProt P41145); test: Inhibition of kappa opioid receptor (unknown origin) at 10 uM relative to control
Chain of Kappa-type opioid receptor (Homo sapiens) (P41145 whole entry): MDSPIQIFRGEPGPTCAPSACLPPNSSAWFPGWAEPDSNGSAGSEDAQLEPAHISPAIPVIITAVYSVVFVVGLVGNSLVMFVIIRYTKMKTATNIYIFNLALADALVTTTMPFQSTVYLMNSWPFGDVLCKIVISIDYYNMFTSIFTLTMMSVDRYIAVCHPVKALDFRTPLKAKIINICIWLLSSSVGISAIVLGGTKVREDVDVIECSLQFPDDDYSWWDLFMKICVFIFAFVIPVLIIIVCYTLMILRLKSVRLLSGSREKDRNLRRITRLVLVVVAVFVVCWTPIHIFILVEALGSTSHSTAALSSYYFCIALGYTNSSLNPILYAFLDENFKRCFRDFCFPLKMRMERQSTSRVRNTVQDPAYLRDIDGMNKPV

[8] = target: Acetylcholinesterase (Homo sapiens) (UniProt P22303); test: Inhibition of AChE (unknown origin) at 10 uM relative to control
Chain of Acetylcholinesterase (Homo sapiens) (P22303 whole entry): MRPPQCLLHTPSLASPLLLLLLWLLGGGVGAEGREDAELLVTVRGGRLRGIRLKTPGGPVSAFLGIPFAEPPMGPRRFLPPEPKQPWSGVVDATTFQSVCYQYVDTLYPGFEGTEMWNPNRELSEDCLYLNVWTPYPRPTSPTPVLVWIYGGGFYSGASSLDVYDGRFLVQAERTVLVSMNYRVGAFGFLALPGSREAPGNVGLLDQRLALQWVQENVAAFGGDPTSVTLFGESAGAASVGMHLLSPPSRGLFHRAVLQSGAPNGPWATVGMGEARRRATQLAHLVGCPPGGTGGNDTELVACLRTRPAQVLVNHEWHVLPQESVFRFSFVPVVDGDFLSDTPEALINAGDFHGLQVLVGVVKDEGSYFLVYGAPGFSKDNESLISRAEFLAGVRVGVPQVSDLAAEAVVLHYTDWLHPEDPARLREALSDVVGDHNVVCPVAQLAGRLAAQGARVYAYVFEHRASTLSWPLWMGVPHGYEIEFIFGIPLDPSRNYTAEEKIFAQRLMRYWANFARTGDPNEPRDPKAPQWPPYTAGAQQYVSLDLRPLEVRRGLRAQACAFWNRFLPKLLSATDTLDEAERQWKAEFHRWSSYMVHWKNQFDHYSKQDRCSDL

Homo sapiens [9] = organism: Homo sapiens; test: Inhibition of NMDA glutamate receptor (unknown origin) at 10 uM relative to control
Homo sapiens [10] = organism: Homo sapiens; test: Inhibition of potassium channel (unknown origin) at 10 uM relative to control
[11] = target: Prostaglandin G/H synthase 2 (Homo sapiens) (UniProt P35354); test: Inhibition of COX2 (unknown origin) at 10 uM relative to control
Chain of Prostaglandin G/H synthase 2 (Homo sapiens) (P35354 whole entry): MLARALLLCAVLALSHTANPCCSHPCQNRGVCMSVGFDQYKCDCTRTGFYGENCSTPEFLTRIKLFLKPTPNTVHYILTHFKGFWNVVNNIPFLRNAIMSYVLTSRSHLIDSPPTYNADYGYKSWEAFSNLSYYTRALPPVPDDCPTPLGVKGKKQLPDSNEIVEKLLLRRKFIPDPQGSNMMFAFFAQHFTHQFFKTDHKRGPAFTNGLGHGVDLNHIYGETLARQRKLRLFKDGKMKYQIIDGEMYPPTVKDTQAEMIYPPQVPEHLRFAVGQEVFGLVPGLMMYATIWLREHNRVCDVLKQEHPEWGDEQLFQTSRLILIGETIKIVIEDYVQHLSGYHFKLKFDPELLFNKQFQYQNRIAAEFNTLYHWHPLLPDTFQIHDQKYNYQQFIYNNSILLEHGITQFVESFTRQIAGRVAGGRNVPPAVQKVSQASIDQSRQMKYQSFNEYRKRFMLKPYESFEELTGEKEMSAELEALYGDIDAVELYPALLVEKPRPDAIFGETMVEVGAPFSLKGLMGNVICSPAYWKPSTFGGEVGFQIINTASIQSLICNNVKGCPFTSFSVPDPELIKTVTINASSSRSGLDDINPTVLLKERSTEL

MAO-A = MAO-A (Homo sapiens, UniProt P21397); test: Inhibition of MAO-A (unknown origin) at 10 uM relative to control
Chain of MAO-A (P21397 whole entry): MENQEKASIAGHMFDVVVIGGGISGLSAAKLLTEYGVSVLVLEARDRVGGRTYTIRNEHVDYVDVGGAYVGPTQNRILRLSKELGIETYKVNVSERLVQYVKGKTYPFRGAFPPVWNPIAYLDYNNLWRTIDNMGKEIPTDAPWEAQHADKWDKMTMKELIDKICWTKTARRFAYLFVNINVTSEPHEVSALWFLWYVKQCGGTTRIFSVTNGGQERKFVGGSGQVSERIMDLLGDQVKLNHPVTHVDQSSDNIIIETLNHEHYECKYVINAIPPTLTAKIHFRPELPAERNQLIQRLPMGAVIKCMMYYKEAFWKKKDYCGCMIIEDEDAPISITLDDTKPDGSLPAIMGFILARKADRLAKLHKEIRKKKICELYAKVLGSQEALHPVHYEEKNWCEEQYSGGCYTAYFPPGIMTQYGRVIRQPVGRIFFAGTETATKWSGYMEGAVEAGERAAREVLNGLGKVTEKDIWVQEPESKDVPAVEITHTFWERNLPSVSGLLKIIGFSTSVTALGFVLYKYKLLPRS

[12] = Aqueous solubility of compound in simulated intestinal fluid at 200 uM; format: physicochemical
[13] = Permeability of compound across basolateral to apical side in human Caco-2 cells at pH 7.4; format: ADME, cell-based; conditions: Caco-2, pH 7.4, read-out: permeability
[14] = Protein binding in human plasma; format: ADME, cell-free; conditions: read-out: PPB (converted)
[15] = target: 5-hydroxytryptamine receptor 2A (Homo sapiens) (UniProt P28223); test: Displacement of [3H]-ketanserin from human recombinant 5-HT2A receptor stably expressed in CHO-K1 cell membranes at 1 uM measured after 90 mins by microbeta2 scintillation counting analysis relative to control; conditions: Cell membrane
Chain of 5-hydroxytryptamine receptor 2A (Homo sapiens) (P28223 whole entry): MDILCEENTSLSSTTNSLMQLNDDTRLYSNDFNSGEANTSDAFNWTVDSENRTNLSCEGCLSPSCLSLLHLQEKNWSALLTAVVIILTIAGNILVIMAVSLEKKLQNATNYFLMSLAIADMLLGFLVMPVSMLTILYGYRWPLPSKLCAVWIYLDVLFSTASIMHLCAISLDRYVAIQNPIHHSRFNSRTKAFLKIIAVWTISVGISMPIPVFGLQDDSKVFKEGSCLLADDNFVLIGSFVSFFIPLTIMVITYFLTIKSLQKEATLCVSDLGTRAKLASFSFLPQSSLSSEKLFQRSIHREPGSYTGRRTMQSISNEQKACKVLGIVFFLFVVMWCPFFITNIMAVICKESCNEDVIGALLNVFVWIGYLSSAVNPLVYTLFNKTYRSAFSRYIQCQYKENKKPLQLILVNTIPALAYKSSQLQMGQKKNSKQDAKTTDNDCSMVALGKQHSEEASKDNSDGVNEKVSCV

[16] = target: Muscarinic acetylcholine receptor M1 (Homo sapiens) (UniProt P11229); test: Displacement of [3H]-scopolamine from human recombinant muscarinic M1 receptor stably expressed in CHO-K1 cell membranes at 1 uM measured after 120 mins by microbeta2 scintillation counting analysis relative to control; conditions: Cell membrane
[17] = In vivo biased agonist activity at 5-HT1A receptor in rat prefrontal brain cortex assessed as time required to cause maximum increase in ERK1/2 phosphorylation levels at […], po administered as single dose by Alphalisa assay; format: functional
Rattus norvegicus [18] = test: Antidepressant-like activity in Wistar rat assessed as reduction in immobility time at […], po administered 15 mins prior to testing and measured for 5 mins test period by Porsolt-forced swim test; format: functional, organism-based; conditions: time 20.0 min
Rattus norvegicus [19] = test: Antidepressant-like activity in Wistar rat assessed as minimum effective dose causing reduction in immobility time after oral administration with compound 60 mins prior to testing and measured for 5 mins test period by Porsolt-forced swim test; format: functional; conditions: 1.083 h, time 65 min, read-out: MED
[20] = Effect on spontaneous locomotor activity in Wistar rat at 0.04 to […], po after 60 mins in presence of 5-HT1A antagonist WAY100635 by open field test; format: organism-based; conditions: in vivo, 1 h, dose 0.04-2.5 mg/kg

## O=C(c1ccc(F)c(Cl)c1)N1CCC(F)(CNCCOc2ccccn2)CC1
[1]
  pKi: 6.78
[2]
  inhibition: 87.6%
[3]
  inhibition: 3.8%
[4]
  inhibition: 12.9%
[5]
  inhibition: 6.3%
[6]
  inhibition: 9.7%
[7]
  inhibition: 34.6%
[8]
  inhibition: -2.9%
Homo sapiens [9]
  inhibition: -1.8%
Homo sapiens [10]
  inhibition: 3.8%
[11]
  inhibition: -9.2%
MAO-A
  inhibition at 10 µM: -3.6%
[12]
  solubility at 200 µM: 192 µM (≈ 78.8 µg/mL)
[13]
  Papp B→A: 22.4 ×10⁻⁶ cm/s
[14]
  fraction unbound: 0.068
[15]
  Activity: < 50%
[16]
  Activity: < 50%
[17]
  Time: 15 min
Rattus norvegicus [18]
  Activity: Active
Rattus norvegicus [19]
  minimal effective dose: 0.16 mg/kg
[20]
  Activity: Non-Toxic
